Target: T1, recombinant human PAI-1 (Homo sapiens, UniProt P05121)
T1 construct: purchased Molecular Innovations, Inc
Assay: Test Example 1: human PAI-1 inhibitory activity (tPA fluorogenic substrate, pH 7.5 Tris buffer)
Format: biochemical
Settings: Tris buffer
Protocol: 50 mM Tris, 150 mM NaCl, 10 μg/ml BSA, 0.01% Tween80 (SIGMA-ALDRICH Corporation)

T1 sequence (P05121 24-402): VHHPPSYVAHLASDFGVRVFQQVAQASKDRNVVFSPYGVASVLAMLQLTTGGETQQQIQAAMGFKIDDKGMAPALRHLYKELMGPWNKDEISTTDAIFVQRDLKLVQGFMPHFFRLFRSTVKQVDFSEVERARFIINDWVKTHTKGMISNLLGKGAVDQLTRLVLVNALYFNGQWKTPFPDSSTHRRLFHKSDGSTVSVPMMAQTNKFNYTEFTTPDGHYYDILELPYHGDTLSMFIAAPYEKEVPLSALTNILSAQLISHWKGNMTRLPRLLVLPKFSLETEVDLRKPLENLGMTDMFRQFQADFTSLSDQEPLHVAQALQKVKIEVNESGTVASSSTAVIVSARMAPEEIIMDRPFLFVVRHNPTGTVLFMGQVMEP

Inhibition Rate of PAI-1 Activity (%) (Compound Concentration 5 μM)	Inhibition Rate of PAI-1 Activity (%) (Compound Concentration 10 μM)	Inhibition Rate of PAI-1 Activity (%) (Compound Concentration 25 μM)	SMILES
75	92	–	CCC(CC)Oc1ccc(N(CCCc2ccccc2)C(=O)C(=O)O)c(-c2ccc(OC(F)(F)F)cc2)c1 [Compound 237]
3	6	34	CCCCCCN(C(=O)C(=O)O)c1ccc(Oc2ccc(OC(F)(F)F)cc2)cc1 [Compound 252]
33	67	96	CC(C)(C)c1ccc(COc2ccc(OCc3ccc(OC(F)(F)F)cc3)cc2CCC(=O)O)cc1 [Compound 414]
86	84	–	CC(C)(C)c1ccc(CN(C(=O)C(=O)O)c2ccc(N3CCCCC3)c(-c3ccc(OC(F)(F)F)cc3)c2)cc1 [Compound 217]
48	83	92	CC(C)(C)c1ccc(CN(C(=O)C(=O)O)c2cccc(OCc3ccc(OC(F)(F)F)cc3)c2)cc1 [Compound 619]
81	98	94	CC(C)Oc1ccc(N(Cc2ccc(C(C)(C)C)cc2)C(=O)C(=O)O)c(-c2ccc(OC(F)(F)F)cc2)c1 [Compound 209]
63	95	90	CC(C)(C)c1ccc(CN(C(=O)C(=O)O)c2c(Cl)cc(-c3ccc(OC(F)(F)F)cc3)cc2Cl)cc1 [Compound 173]
10	11	31	O=C(O)C(=O)N(Cc1ccc(O)cc1)c1ccc(-c2ccc(OC(F)(F)F)cc2)cc1 [Compound 181]
14	34	65	CC(C)(C)c1ccc(COc2ccc(-c3ccc(OC(F)(F)F)cc3)cc2NCC(=O)O)cc1 [Compound 539]
45	71	95	O=C(O)C(=O)N(CCCCCc1ccccc1)c1ccc(-c2ccc(OC(F)(F)F)cc2)cc1 [Compound 228]
59	86	85	Cc1cc(N(Cc2ccc(C(C)(C)C)cc2)C(=O)C(=O)O)ccc1-c1ccc(OC(F)(F)F)cc1 [Compound 184]
22	46	92	CC(C)(C)c1ccc(COc2ccc(Nc3ccc(OC(F)(F)F)cc3)cc2CCC(=O)O)cc1 [Compound 412]
22	41	87	CN(C(=O)C(=O)O)c1ccc(OCc2ccc(OC(F)(F)F)cc2)c(OCc2ccc(OC(F)(F)F)cc2)c1 [Compound 623]
41	77	95	CC(C)(C)c1ccc(CN(C(=O)C(=O)O)c2ccccc2OCc2ccc(OC(F)(F)F)cc2)cc1 [Compound 620]
56	89	88	CC(C)(C)c1ccc(CN(C(=O)C(=O)O)c2ccc(SCc3ccc(OC(F)(F)F)cc3)cc2)cc1 [Compound 630]
22	44	81	O=C(O)C(=O)N(Cc1c(Cl)cccc1Cl)c1ccc(-c2ccc(OC(F)(F)F)cc2)cc1 [Compound 171]
79	90	–	CCC(CC)Oc1ccc(N(Cc2ccc(C(C)(C)C)cc2)C(=O)C(=O)O)c(-c2ccc(OC(F)(F)F)cc2)c1 [Compound 207]

Further lines, the compound ahead of its results:

SMILES	Inhibition Rate of PAI-1 Activity (%) (Compound Concentration 5 μM)	Inhibition Rate of PAI-1 Activity (%) (Compound Concentration 10 μM)	Inhibition Rate of PAI-1 Activity (%) (Compound Concentration 25 μM)
O=C(O)/C=C/c1cc(-c2ccc(OC(F)(F)F)cc2)ccc1OCc1cccc(C(F)(F)F)c1 [Compound 57]	24	53	82
CC(C)(C)c1ccc(N(C(=O)C(=O)O)c2cccc(Oc3ccc(OC(F)(F)F)cc3)c2)cc1 [Compound 170]	38	73	94
COc1cc(-c2ccc(OC(F)(F)F)cc2)cc(/C=C/C(=O)O)c1OCc1ccc(C(C)(C)C)cc1 [Compound 81]	28	63	70
CC(C)(C)c1ccc(CN(C(=O)C(=O)O)c2ccc(-c3ccc(Cl)cc3)cc2)cc1 [Compound 135]	–	6	67
CC(C)(C)c1ccc(CN(C(=O)C(=O)O)c2ccc(-c3ccc(OC(F)(F)F)cc3)cc2)cc1 [Compound 133]	80	92	–
O=C(O)C(=O)N(Cc1ccc(Cl)cc1Cl)c1ccc(-c2ccc(OC(F)(F)F)cc2)cc1 [Compound 144]	3	22	76
O=C(O)CCc1cc(-c2ccc(OC(F)(F)F)cc2)ccc1OCc1ccc(Cl)cc1Cl [Compound 27]	5	29	92
COc1ccc(COc2ccc(-c3ccc(OC(F)(F)F)cc3)cc2CCC(=O)O)cc1 [Compound 60]	15	35	25
O=C(O)CCc1cc(-c2ccc(OC(F)(F)F)cc2)ccc1OCCCc1ccccc1 [Compound 101]	42	73	>99
CC(C)(C)c1ccc(COc2cccc(Oc3ccc(OC(F)(F)F)cc3)c2/C=C/C(=O)O)cc1 [Compound 85]	40	61	85
O=C(O)CCc1cc(-c2ccc(OC(F)(F)F)cc2)ccc1Oc1ccc(OC(F)(F)F)cc1 [Compound 16]	23	46	96
COc1ccccc1COc1ccc(-c2ccc(OC(F)(F)F)cc2)cc1CCC(=O)O [Compound 23]	–	7	47
O=C(O)C=Cc1c(Oc2ccc(OC(F)(F)F)cc2)cccc1Oc1ccc(OC(F)(F)F)cc1 [Compound 97]	30	40	53
O=C(O)COc1cc(-c2ccc(OC(F)(F)F)cc2)ccc1OCCCCc1ccccc1 [Compound 115]	34	59	90
CC(C)(C)c1ccc(COc2ccc(-c3ccc(OC(F)(F)F)cc3)cc2COCC(=O)O)cc1 [Compound 107]	48	85	97
Cc1cc(C)cc(COc2ccc(-c3ccc(OC(F)(F)F)cc3)cc2CC(=O)O)c1 [Compound 11]	41	84	99
CC(C)(C)c1ccc(COc2c(Cl)cc(-c3ccc(OC(F)(F)F)cc3)cc2C=CC(=O)O)cc1 [Compound 91]	30	67	96
CC(C)(C)c1ccc(COc2ccc(-c3cccc(OC(F)(F)F)c3)cc2CCC(=O)O)cc1 [Compound 64]	49	74	95
Cc1cc(-c2ccc(OC(F)(F)F)cc2)cc(C)c1N(Cc1ccc(C(C)(C)C)cc1)C(=O)C(=O)O [Compound 152]	41	88	93
O=C(O)CCc1cc(-c2ccc(OC(F)(F)F)cc2)ccc1OCc1ccccc1 [Compound 3]	35	68	–
CSc1ccc(CN(C(=O)C(=O)O)c2ccc(-c3ccc(OC(F)(F)F)cc3)cc2)cc1 [Compound 160]	14	26	68
CC(C)(C)c1ccc(COc2ccc(-c3ccc(F)cc3)cc2CCC(=O)O)cc1 [Compound 34]	24	53	99
Cc1cc(-c2ccc(OC(F)(F)F)cc2)cc(CCC(=O)O)c1OCc1ccc(C(C)(C)C)cc1 [Compound 84]	28	62	95
Cc1cc(-c2ccc(OC(F)(F)F)cc2)cc(/C=C/C(=O)O)c1OCc1ccc(C(C)(C)C)cc1 [Compound 83]	27	46	56
CC(C)(C)c1ccc(N(C(=O)C(=O)O)c2ccc(-c3ccc(OC(F)(F)F)cc3)cc2)cc1 [Compound 128]	58	89	–
CC(C)(C)c1ccc(CN(C(=O)C(=O)O)c2ccccc2-c2ccc(OC(F)(F)F)cc2)cc1 [Compound 148]	17	55	98
CC(C)(C)c1ccc(Oc2ccc(Oc3ccc(OC(F)(F)F)cc3)cc2C=CC(=O)O)cc1 [Compound 99]	31	66	99

Source: patent publication US8633245B2, “PAI-1 inhibitor” (Institute of Medicinal Molecular Design, Inc., priority 2008, dated 2014)
